Data published in ChEMBL document CHEMBL5653594, “ZD1839 (Iressa): an orally active inhibitor of epidermal growth factor signaling with potential for cancer therapy” (Cancer Res, 2002).

Assays:
[1] = test system: A-431; assay: Antitumor activity against human A-431 cells xenografted in Swiss nu/nu mouse assessed as reduction in c-fos mRNA expression at 200 mg/kg measured after 36 hrs by RT-PCR analysis relative to control; type: functional; set-up: scale not given: the % may be the effect or the level left
[2] = test system: A-431; assay: Antitumor activity against human A-431 cells xenografted in Swiss nu/nu mouse assessed as reduction in c-fos mRNA expression at 50 mg/kg measured after 36 hrs by RT-PCR analysis relative to control; type: functional; set-up: scale not given: the % may be the effect or the level left
[3] = test system: A-431; assay: Antitumor activity against human A-431 cells xenografted in po dosed Swiss nu/nu mouse assessed as reduction in c-fos mRNA expression measured after 4 days by RT-PCR analysis; type: functional, organism-based; settings: dose 12.5-200 mg/kg, time 4.0 day
[4] = test system: A-431; assay: Antitumor activity against human A-431 cells xenografted in Swiss nu/nu mouse assessed as c-fos mRNA expression at 50 mg/kg measured after 6 to 36 hrs by RT-PCR analysis relative to control; type: functional; settings: time 6-36 hrs

In the case of `COc1cc2ncnc(Nc3ccc(F)c(Cl)c3)c2cc1OCCCN1CCOCC1` [GEFITINIB], the Activity [1] is reported as greater than 99%, the Activity [2] is reported as 94% and the Activity [3] is reported as “Dose-Dependent Effect”. It also gave an Activity [4] of 5%.
